Activity calls are given as the source filed them.
Columns and labels:
[1] = target: Heat shock protein HSP 90-alpha (Homo sapiens, UniProt P07900); assay: Luminescence-based dose response biochemical high throughput screening assay for inhibitors of the Heat Shock Protein 90 (HSP90). [Related pubchem assays: 1831 (Summary AID.), 1846 (Confirmation screen.), 1789 (Primary screen.)]
fMet-Leu-Phe receptor = fMet-Leu-Phe receptor (Homo sapiens, UniProt P21462); assay: FPR ligands, dose response (AID 519); type: functional
Major prion protein = Major prion protein (Homo sapiens, UniProt P04156); type: functional, cell-based
cells [2] = assay: cells
[3] = target: T1, Oxysterols receptor LXR-beta (Homo sapiens, UniProt P55055); type: functional, cell-based
T1 sequence (P55055 whole entry): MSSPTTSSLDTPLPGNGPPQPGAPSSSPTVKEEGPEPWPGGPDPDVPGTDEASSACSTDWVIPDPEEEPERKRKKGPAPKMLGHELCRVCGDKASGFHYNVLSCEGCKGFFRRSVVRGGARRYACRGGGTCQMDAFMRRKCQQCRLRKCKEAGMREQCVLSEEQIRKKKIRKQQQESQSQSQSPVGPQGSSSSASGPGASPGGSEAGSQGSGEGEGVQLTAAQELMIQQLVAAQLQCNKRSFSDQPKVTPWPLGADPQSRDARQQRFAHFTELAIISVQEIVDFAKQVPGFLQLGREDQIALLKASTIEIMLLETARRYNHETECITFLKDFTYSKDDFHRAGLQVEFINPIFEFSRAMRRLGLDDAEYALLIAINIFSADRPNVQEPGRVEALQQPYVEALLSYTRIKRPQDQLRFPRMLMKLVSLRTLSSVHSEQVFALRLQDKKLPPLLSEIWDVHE

[4] = target: T1, Oxysterols receptor LXR-beta; type: functional, cell-based; remark: listed apart in the source
cells [5] = assay: cells; remark: listed apart in the source
[6] = target: Bifunctional protein GlmU (Mycobacterium tuberculosis, UniProt P9WMN3); assay: Inhibitors of Mycobacterial Glucosamine-1-phosphate acetyl transferase (GlmU). Secondary screen.; parameters: species or system Mycobacterium tuberculosis H37Rv
Protein Tat = Protein Tat (Human immunodeficiency virus type 1 group M subtype B (isolate HXB2)(HIV-1), UniProt P04608); type: functional;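 also: tat binding to TAR RNA read out by fluorescence polarization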
Genome polyprotein = Genome polyprotein (dengue virus type 2, UniProt P29990); assay: Dengue-2 NS5 methyltransferase inhibitors, primary screen, biochemical, confirmation dose response (AID 588689); type: functional
[7] = Luminescence-based cell-based high throughput dose response assay to identify activators of the DAF-12 from the parasite S. stercoralis (ssDAF-12).; type: functional
[8] = target: T2, RNA-binding protein pos-1 (Caenorhabditis elegans, UniProt G5EF15); assay: inhibitors of POS-1/mex-3 RNA binding, dose response, biochemical, fluorescence polarization (AID 1964);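 also: purified POS-1 fused to maltose binding protein made in E. coli; potency of compounds blocking POS-1 binding to fluorescent RNA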
T2 sequence (G5EF15 whole entry): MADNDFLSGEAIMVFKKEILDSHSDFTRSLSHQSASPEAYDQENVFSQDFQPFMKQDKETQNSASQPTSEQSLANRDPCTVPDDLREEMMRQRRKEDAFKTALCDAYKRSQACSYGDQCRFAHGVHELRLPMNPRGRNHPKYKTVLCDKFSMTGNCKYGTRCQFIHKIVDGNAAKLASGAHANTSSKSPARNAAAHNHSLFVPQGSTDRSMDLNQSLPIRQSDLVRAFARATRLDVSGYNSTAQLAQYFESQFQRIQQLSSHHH

[9] = target: T1, Oxysterols receptor LXR-beta; assay: LXR agonists, Gal4 luciferase reporter, dose response, counter-screen for ssDAF-12 agonist project, cell-based, luminescence, HEK293, S. stercoralis campaign (AID 720737); type: functional; settings: read-out: IC50 (the source's name)
[10] = target: T3, Zinc finger protein mex-5 (Caenorhabditis elegans, UniProt Q9XUB2); assay: MEX-5/TCR-2 RNA interaction inhibitors, dose response, biochemical, C. elegans, fluorescence polarization (AID 1960)
T3 sequence (Q9XUB2 whole entry): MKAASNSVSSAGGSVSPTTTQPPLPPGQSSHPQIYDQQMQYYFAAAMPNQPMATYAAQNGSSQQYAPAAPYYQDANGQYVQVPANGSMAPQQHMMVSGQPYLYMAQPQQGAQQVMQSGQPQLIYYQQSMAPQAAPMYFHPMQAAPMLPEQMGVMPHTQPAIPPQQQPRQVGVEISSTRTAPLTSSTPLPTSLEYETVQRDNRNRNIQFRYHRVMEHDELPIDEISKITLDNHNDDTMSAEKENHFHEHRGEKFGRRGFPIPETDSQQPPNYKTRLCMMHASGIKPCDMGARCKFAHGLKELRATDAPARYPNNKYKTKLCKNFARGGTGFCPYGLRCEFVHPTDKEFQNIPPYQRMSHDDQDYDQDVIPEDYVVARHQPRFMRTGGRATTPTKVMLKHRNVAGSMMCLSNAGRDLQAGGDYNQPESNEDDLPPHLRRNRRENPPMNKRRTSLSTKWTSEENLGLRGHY

Cc1c(-c2nc(-c3ccc(C(F)(F)F)cc3)no2)n(C)oc1=O
IC50 [1]: 1.6 µM (active)

COc1ccc(-c2nc(-c3ccc(Br)o3)no2)cc1OC
Ki (fMet-Leu-Phe receptor): > 66.7 µM (inactive)

CCc1nc(SCC(=O)OC(C)C)c2ccccc2n1
IC50 (Major prion protein): 2.38 µM (active) | IC50 (cells [2]): > 138 µM (inactive)

Cn1c(SCc2ccccc2F)nc2cccnc21
EC50 [3]: > 67.5 µM (inactive)

Oc1cc(-c2ccccc2)nc(N2CCN(Cc3ccccc3)CC2)n1
Ki (fMet-Leu-Phe receptor): > 66.7 µM (inactive)

Cc1ccc(CNC2=Nc3ccccc3CS2)cc1
EC50 [4]: > 67.5 µM (inactive) | EC50 (cells [5]): > 67.5 µM (inactive)

O=C(COc1ccc2ccccc2c1Br)NC(=S)Nc1cccc(CO)c1
IC50 (Major prion protein): 9.99 µM (active) | IC50 (cells [2]): 98.9 µM (inactive)

Cc1ccc(CNC(=O)CCS(=O)(=O)c2ccc(Br)cc2)cc1
IC50 [6]: 59.1 µM (active)

O=C(O)c1ccc(-n2nc(C(F)(F)F)c3c2-c2ccoc2CC3)cc1
IC50 (Protein Tat): > 100 µM (active) | IC50 (Genome polyprotein): 89 µM (active)

O=C(O)C(=O)/C(=C\c1ccsc1)c1ccc2ccccc2n1
IC50 [7]: > 67.6 µM (inactive) | EC50 [8]: 27.9 µM (active) | EC50 [9]: > 67.6 µM (inactive) | EC50 [10]: 49 µM (active)
